Literature values as cited in patent publication US20140148399A1, “Compositions and methods for treating or ameliorating obesity or for reducing diabetic hypercholesterolemia” (UNIVERSITY OF TSUKUBA, priority 2012, published 2014).

System: 3T3-L1 cells

COc1cc(-c2oc3cc(O)cc(O)c3c(=O)c2O)ccc1O [Isorhamnetin]
adiponectin expression and secretion: reduces | C/EBP-α and PPAR-γ mRNA levels (3T3-L1 adipocyte differentiation): reducing | adipogenesis in 3T3-L1 cells (by inhibiting 3T3-L1 adipocyte differentiation): represses adipogenesis
